Here are results for one compound from patent US9492471B2, “Methods of treating a disease or disorder associated with Bruton'S Tyrosine Kinase” (Celgene Avilomics Research, Inc., priority 2013, dated 2016).

Structures are written as SMILES. Read-outs that look alike come from different tables or passages of the source.

Common to all, as to assay: HotSpot kinase profiling
Holding throughout (format): biochemical

In one assay the target is T1, CDK1/cyclin E (Homo sapiens, UniProt P06493).
T1 construct: purchased Reaction Biology Corp
T1 sequence (P06493 whole entry): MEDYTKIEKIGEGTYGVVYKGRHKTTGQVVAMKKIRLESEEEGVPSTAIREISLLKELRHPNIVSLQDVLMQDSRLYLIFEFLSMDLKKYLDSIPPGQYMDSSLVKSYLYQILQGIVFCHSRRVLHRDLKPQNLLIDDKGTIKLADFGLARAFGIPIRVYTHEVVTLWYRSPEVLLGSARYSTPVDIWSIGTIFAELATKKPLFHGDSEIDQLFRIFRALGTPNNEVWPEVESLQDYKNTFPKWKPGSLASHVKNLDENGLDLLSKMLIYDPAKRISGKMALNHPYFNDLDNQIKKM
T1 sequence (P24864 whole entry partner): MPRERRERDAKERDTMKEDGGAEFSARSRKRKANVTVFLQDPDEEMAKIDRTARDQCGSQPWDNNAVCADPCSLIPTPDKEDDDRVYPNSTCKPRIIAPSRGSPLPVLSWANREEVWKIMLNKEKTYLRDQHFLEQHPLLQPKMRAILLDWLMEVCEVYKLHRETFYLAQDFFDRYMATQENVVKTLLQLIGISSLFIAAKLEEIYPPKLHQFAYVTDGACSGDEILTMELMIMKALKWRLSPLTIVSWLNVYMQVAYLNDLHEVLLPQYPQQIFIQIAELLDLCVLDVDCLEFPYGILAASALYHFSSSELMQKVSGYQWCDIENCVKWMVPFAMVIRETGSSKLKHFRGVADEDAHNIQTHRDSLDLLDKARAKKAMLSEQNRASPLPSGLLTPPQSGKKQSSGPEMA
The method, boiled down: (§1)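 Radio-isotope P81 filtration format. Substrate + required cofactors in reaction buffer, kinase added, 2 h RT. Stop, wash with 0.1% phosphoric acid, detect. % inhibition vs DMSO; mean of duplicates where repeated.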

The target in the next assay is T2, LKB1 (Homo sapiens, UniProt Q15831).
T2 construct: purchased Reaction Biology Corp
T2 sequence (Q15831 1-433): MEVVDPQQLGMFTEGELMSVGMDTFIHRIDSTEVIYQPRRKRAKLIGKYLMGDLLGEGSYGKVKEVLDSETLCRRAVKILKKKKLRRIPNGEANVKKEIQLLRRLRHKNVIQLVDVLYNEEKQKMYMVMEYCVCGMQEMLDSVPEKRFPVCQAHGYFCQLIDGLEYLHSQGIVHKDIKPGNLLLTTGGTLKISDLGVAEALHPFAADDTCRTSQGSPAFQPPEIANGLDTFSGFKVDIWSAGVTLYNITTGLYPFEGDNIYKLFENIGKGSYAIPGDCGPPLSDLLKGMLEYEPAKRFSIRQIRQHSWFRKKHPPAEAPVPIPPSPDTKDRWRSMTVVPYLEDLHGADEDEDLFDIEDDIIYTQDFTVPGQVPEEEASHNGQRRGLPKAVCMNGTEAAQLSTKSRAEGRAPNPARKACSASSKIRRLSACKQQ
T2 sequence (Q7RTN6 1-431 partner): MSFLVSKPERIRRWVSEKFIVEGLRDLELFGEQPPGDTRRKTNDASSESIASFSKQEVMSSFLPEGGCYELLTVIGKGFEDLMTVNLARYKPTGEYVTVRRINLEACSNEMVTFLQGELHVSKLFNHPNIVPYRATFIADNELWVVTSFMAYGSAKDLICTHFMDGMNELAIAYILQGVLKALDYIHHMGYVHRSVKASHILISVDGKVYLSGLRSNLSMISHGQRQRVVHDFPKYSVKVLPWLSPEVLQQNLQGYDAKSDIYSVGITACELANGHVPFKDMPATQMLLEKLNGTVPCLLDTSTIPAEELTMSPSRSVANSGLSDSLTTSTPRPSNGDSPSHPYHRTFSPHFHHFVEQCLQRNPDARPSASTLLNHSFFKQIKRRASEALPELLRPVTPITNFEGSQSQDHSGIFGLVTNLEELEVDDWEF
T2 sequence (Q9Y376 1-341 partner): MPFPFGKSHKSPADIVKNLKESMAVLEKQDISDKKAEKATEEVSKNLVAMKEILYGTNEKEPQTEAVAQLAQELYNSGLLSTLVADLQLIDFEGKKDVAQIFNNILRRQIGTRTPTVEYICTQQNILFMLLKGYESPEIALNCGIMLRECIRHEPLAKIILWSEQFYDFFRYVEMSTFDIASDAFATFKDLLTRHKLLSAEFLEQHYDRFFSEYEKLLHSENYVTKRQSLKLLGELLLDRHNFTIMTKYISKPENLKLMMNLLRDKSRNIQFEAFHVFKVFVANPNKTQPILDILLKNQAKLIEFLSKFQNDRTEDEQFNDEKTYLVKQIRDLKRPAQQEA
In outline:
as §1

The next assay addresses T3, PKCeta (Homo sapiens, UniProt P24723).
T3 construct: purchased Reaction Biology Corp
The method, boiled down: as §1

The target of another assay is T4, PKCmu/PRKD1 (Homo sapiens, UniProt Q15139).
T4 construct: purchased Reaction Biology Corp
T4 sequence (Q15139 1-912): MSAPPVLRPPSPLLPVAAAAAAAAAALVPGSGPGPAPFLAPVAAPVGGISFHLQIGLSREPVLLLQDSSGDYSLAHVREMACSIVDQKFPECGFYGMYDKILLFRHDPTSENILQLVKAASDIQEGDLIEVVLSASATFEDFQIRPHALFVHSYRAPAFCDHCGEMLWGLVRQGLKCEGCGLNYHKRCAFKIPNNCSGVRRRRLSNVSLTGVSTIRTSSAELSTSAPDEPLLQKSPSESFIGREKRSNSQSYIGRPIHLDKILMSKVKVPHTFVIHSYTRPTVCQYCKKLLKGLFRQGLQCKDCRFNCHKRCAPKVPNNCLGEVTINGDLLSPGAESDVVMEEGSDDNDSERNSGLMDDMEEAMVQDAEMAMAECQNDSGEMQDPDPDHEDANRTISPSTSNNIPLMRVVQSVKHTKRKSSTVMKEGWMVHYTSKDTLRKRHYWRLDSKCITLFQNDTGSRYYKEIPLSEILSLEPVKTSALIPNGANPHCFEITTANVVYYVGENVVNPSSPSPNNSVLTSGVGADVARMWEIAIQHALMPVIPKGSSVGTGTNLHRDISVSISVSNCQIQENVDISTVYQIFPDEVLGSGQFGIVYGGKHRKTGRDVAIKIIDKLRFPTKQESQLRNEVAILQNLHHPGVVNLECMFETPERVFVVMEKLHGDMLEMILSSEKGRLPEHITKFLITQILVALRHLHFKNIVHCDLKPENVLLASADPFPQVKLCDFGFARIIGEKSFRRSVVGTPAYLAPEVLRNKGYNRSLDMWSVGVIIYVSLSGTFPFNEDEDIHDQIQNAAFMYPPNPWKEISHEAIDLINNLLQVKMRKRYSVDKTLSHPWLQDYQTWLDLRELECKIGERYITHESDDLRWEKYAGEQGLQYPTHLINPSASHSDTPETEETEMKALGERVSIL
The method, boiled down:
as §1

The target in a further assay is T5, CK1a1 (Homo sapiens, UniProt P48729).
T5 construct: purchased Reaction Biology Corp
T5 sequence (P48729 whole entry): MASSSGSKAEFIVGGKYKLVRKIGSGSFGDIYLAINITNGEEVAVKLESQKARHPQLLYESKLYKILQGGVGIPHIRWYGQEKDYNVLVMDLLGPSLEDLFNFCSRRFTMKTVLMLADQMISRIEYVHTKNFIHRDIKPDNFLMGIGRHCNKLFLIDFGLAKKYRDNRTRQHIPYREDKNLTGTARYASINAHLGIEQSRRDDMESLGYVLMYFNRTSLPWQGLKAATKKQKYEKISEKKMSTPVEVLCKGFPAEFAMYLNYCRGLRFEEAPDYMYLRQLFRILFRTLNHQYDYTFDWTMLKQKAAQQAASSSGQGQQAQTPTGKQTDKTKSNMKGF
The method, boiled down:
as §1

The mark [1] stands for this setting: read-out: % Enzyme Activity (relative to DMSO controls) Run 1.
Where [2] appears, read: read-out: % Enzyme Activity (relative to DMSO controls) Run 2.

T3 sequence (P24723 whole entry): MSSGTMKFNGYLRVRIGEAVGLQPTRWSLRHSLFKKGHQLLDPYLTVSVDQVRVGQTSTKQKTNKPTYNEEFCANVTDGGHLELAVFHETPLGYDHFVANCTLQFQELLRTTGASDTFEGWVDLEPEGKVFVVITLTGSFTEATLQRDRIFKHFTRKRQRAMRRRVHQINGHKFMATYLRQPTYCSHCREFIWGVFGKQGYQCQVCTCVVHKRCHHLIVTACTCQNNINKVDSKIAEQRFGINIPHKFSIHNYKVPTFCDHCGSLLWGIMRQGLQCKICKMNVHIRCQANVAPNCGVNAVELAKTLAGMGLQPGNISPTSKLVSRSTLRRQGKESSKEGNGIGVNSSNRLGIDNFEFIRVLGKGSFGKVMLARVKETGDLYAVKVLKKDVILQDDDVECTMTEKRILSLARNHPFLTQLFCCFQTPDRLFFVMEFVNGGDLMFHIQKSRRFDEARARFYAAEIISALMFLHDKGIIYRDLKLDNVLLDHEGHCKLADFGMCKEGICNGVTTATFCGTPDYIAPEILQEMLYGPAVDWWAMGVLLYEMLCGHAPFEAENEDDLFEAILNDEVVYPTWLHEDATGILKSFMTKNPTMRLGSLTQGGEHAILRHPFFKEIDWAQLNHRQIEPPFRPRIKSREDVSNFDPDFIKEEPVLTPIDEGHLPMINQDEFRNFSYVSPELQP

Take `C=CC(=O)Nc1cccc(Nc2nc(Nc3ccc(OCCOC)c(F)c3)ncc2F)c1` [Compound 2]: the inhibition at 3 µM at CDK1/cyclin E was -1.3%; against LKB1, 2.41%; on PKCeta it was -12.8%; on PKCmu/PRKD1, 24.6%; at CK1a1, -6.67%. The remaining activity at 3 µM on CDK1/cyclin E (setting [1]) is 100%; at CDK1/cyclin E (setting [2]), 102%; on LKB1 (setting [1]) it was 99.2%; on LKB1 (setting [2]) it was 95.9%; on PKCeta (setting [1]), 109%; on PKCeta (setting [2]) it was 117%. The remaining activity at 3 µM at PKCmu/PRKD1 (setting [1]) was found to be 74.8%; on PKCmu/PRKD1 (setting [2]), 75.8%; at CK1a1 (setting [1]), 108%; on CK1a1 (setting [2]) it was 106%.

What is called inhibition is the change of the read-out against control, counted positive when it falls.
